Measured values from patent US8367838B2, “Amines or amino alcohols as GLYT1 inhibitors” (Hoffmann-La Roche Inc., priority 2009, dated 2013).
Where a name gives a salt, the structure may show the parent alone.

molecular target: T1, mGlyT-1b (Mus musculus, UniProt P28571); experiment: Glycine uptake inhibition assay (mGlyT-1b), [3H]-glycine uptake in transfected Flp-in-CHO cells; format: cell-based; settings: Flp-in-CHO cells transfected with mGlyT-1b cDNA; [3H]-glycine 60 nM and 25 μM non-radioactive glycine; 20 min preincubation at 22° C.; read-out: IC50 (μM) at GlyT-1; Ic50 (hglyt1b)
T1 construct: host or cells: Flp-in-CHO
T1 sequence (P28571 1-651 isoform P28571-2): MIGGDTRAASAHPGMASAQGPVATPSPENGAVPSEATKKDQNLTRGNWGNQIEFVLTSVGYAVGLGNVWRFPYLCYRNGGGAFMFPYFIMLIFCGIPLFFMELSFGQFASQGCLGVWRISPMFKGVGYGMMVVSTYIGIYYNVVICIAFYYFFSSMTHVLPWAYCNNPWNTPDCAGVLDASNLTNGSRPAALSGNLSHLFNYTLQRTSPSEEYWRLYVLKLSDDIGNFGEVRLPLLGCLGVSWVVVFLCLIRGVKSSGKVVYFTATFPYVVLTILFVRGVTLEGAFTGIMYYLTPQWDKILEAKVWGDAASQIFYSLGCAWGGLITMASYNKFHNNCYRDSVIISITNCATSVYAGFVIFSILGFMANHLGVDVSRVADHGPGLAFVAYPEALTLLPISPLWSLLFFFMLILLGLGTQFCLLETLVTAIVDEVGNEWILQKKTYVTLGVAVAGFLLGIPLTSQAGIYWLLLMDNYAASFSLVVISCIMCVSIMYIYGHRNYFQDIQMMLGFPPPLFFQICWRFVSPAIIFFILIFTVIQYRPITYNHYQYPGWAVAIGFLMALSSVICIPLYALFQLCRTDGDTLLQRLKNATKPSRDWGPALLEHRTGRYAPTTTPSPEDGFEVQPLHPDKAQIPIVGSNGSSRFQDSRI
Description: Nutrient mixture F-12 (Gibco Life-technologies), fetal bovine serum (FBS) 5%, (Gibco life technologies), Penicillin/Streptomycin 1% (Gibco life technologies), Hygromycin 0.6 mg/ml (Gibco life technologies), Glutamine 1 mM Gibco life technologies).
150 mM NaCl, 10 mM Hepes-Tris, pH 7.4, 1 mM CaCl2, 2.5 mM KCl, 2.5 mM MgSO4, 10 mM (+) D-glucose. Flp-in™-CHO (Invitrogen Cat n° R758-07) cells stably transfected with mGlyT1b cDNA.
Glycine Uptake Inhibition Assay (mGlyT-1b)
On day 1 mammalian cells, (Flp-in™-CHO), transfected with mGlyT-1b cDNA, were plated at the density of 40,000 cells/well in complete F-12 medium, without hygromycin in 96-well culture plates. On day 2, the medium was aspirated and the cells were washed twice with uptake buffer (UB). The cells were then incubated for 20 min at 22° C. with either (i) no potential competitor, (ii) 10 mM non-radioactive glycine, (iii) a concentration of a potential inhibitor. A range of concentrations of the potential inhibitor was used to generate data for calculating the concentration of inhibitor resulting in 50% of the effect (e.g. IC50, the concentration of the competitor inhibiting glycine uptake of 50%). A solution was then immediately added containing [^3H]-glycine 60 nM (11-16 Ci/mmol) and 25 μM non-radioactive glycine. The plates were incubated with gentle shaking and the reaction was stopped by aspiration of the mixture and washing (three times) with ice-cold UB. The cells were lysed with scintillation liquid, shaken 3 hours and the radioactivity in the cells was counted using a scintillation counter.

Compared with `CC1(COc2ccc([C@@H](O)[C@@H](N)c3ccc(Cl)c(Cl)c3)c(F)c2)COC1` (racemic) [Example 34, rac-erythro-[2-Amino-2-(3,4-dichloro-phenyl)-1-[2-fluoro-4-(3-methyl-oxetan-3-ylmethoxy)-phenyl]-ethanol], `N[C@@H](c1ccc(Cl)c(Cl)c1)[C@H](O)c1ccc(OCC(O)CCCl)cc1F` (mixture of isomers) [Example 29, rac-erythro-[1-[4-[(rac)-2-Amino-2-(3,4-dichloro-phenyl)-1-hydroxy-ethyl]-3-fluoro-phenoxy]-4-chloro-butan-2-ol hydrochloride] is 20-fold higher in IC50: 0.023 µM for the first, 0.462 µM for the second. The first is the more potent here.

Compared with `Cc1cccc(-c2ccc([C@@H](O)[C@@H](N)c3ccc(Cl)cc3)cc2)c1` (racemic) [Example 71, rac-erythro-2-Amino-2-(4-chloro-phenyl)-1-(3′-methyl-biphenyl-4-yl)-ethanol], `CS(=O)(=O)c1cccc(-c2ccc([C@@H](O)[C@@H](N)c3ccc(Cl)cc3)cc2)c1` (racemic) [Example 62, rac-erythro-2-Amino-2-(4-chloro-phenyl)-1-(3′-methanesulfonyl-biphenyl-4-yl)-ethanol] is 5-fold lower in IC50: 0.342 µM for the first, 0.068 µM for the second. The second is the more potent here.

First: Cc1ccc([C@H](N)[C@H](O)c2ccc(OC3CCOCC3)cc2)cc1F (racemic) [Example 57, rac-erythro-2-Amino-2-(3-fluoro-4-methyl-phenyl)-1-[4-(tetrahydro-pyran-4-yloxy)-phenyl]-ethanol]
Second: Cc1ccc([C@H](N)[C@H](O)c2ccc(OC3CCOCC3)cc2)cc1Cl (racemic) [Example 54, rac-erythro-[2-Amino-2-(3-chloro-4-methyl-phenyl)-1-[4-(tetrahydro-pyran-4-yloxy)-phenyl]-ethanol]
The IC50 of the first is 1.9-fold higher: 0.202 µM for the first, 0.104 µM for the second.

Going from `N[C@@H](c1ccc(Cl)c(Cl)c1)[C@H](O)c1ccc(-c2cccnc2)cc1` (racemic) [Example 81, rac-erythro-2-Amino-2-(3,4-dichloro-phenyl)-1-(4-pyridin-3-yl-phenyl)-ethanol] to `Cc1ccc([C@H](N)[C@H](O)c2ccc(-c3cccnc3)cc2)cc1Cl` (racemic) [Example 92, rac-erythro-2-Amino-2-(3-chloro-4-methyl-phenyl)-1-(4-pyridin-3-yl-phenyl)-ethanol], the IC50 rises from 0.031 µM to 0.084 µM (2.7-fold). The first is the more potent here.

First: N[C@@H](c1ccc(Cl)c(Cl)c1)[C@H](O)c1ccc(-c2cncc(F)c2)cn1 (racemic) [Example 12, rac-erythro-[2-Amino-2-(3,4-dichloro-phenyl)-1-(5′-fluoro-[3,3′]bipyridinyl-6-yl)-ethanoltrihydrochloride]
Second: Cc1cc(-c2cncc(F)c2)ccc1[C@@H](O)[C@@H](N)c1ccc(Cl)c(Cl)c1 (racemic) [Example 2, rac-erythro-[2-Amino-2-(3,4-dichloro-phenyl)-1-[4-(5-fluoro-pyridin-3-yl)-2-methyl-phenyl]]-ethanol dihydrochloride]
The IC50 of the first is 2.3-fold higher: 0.148 µM for the first, 0.063 µM for the second.

Compared with `N[C@@H](c1ccc(Cl)c(Cl)c1)[C@H](O)c1ccc(OC2CCOC2)cn1` (mixture of isomers) [Example 23, rac-erythro-[rac-2-Amino-2-(3,4-dichloro-phenyl)-1-[5-(tetrahydro-furan-3-yloxy)-pyridin-2-yl]-ethanoldihydrochloride], `Cc1cc([C@@H](O)[C@@H](N)c2ccc(Cl)c(Cl)c2)cnc1OC1CCOC1` (mixture of isomers) [Example 31, rac-erythro-[(rac)-2-Amino-2-(3,4-dichloro-phenyl)-1-[5-methyl-6-(tetrahydro-furan-3-yloxy)-pyridin-3-yl]-ethanoldihydrochloride] is 4-fold higher in IC50: 0.16 µM for the first, 0.646 µM for the second. The first is the more potent here.

Compared with `CC(C)(C)c1ccc([C@@H](O)[C@@H](N)c2ccc(Cl)c(Cl)c2)cc1` (racemic) [Example 37, rac-erythro-[2-Amino-1-(4-tert-butyl-phenyl)-2-(3,4-dichloro-phenyl)-ethanol trifluoroacetate], `N[C@@H](c1ccc(Cl)c(Cl)c1)[C@H](O)c1ccc(OC2CCOCC2)cc1` (racemic) [Example 40, rac-erythro-[2-Amino-2-(3,4-dichloro-phenyl)-1-[4-(tetrahydro-pyran-4-yloxy)-phenyl]-ethanol] is 17-fold lower in IC50: 0.876 µM for the first, 0.052 µM for the second. The second is the more potent here.

First: N[C@@H](c1ccc(Cl)c(Cl)c1)[C@H](O)c1ccc(OC2CCOCC2)nc1 (racemic) [Example 22, rac-erythro-[2-Amino-2-(3,4-dichloro-phenyl)-1-[6-(tetrahydro-pyran-4-yloxy)-pyridin-3-yl]-ethanoldihydrochloride]
Second: N[C@@H](c1ccc(Cl)c(Cl)c1)[C@H](O)c1ccc(OC2CCOCC2)c(F)c1 (racemic) [Example 18, rac-erythro-[2-Amino-2-(3,4-dichloro-phenyl)-1-[3-fluoro-4-(tetrahydro-pyran-4-yloxy)-phenyl]-ethanol hydrochloride]
The IC50 of the first is 2.7-fold higher: 0.131 µM for the first, 0.049 µM for the second. The second is the more potent here.

`N[C@@H](c1ccc(Cl)cc1)[C@H](O)c1ccc(-c2cncc(F)c2)cc1` (racemic) [Example 66, rac-erythro-2-Amino-2-(4-chloro-phenyl)-1-[4-(5-fluoro-pyridin-3-yl)-phenyl]-ethanol] and `COc1cncc(-c2ccc([C@@H](O)[C@@H](N)c3ccc(Cl)cc3)cc2)c1` (racemic) [Example 64, rac-erythro-2-Amino-2-(4-chloro-phenyl)-1-[4-(5-methoxy-pyridin-3-yl)-phenyl]-ethanol] are within 1.5-fold of each other in IC50: 0.152 µM for the first, 0.138 µM for the second.

Compared with `N[C@@H](c1ccc(Cl)cc1)[C@H](O)c1ccc(-c2cncnc2)cc1` (racemic) [Example 65, rac-erythro-2-Amino-2-(4-chloro-phenyl)-1-(4-pyrimidin-5-yl-phenyl)-ethanol], `N[C@@H](c1ccc(Cl)c(F)c1)[C@H](O)c1ccc(-c2cccnc2)cc1` (racemic) [Example 84] is 4.2-fold lower in IC50: 0.139 µM for the first, 0.033 µM for the second. The second is the more potent here.

Going from `N[C@@H](c1ccc(Cl)cc1)[C@H](O)c1ccc(-c2cccc(OC(F)(F)F)c2)cc1` (racemic) [Example 78, rac-erythro-2-Amino-2-(4-chloro-phenyl)-1-(3′-trifluoromethoxy-biphenyl-4-yl)-ethanol] to `N[C@@H](c1ccc(C(F)(F)F)cc1)[C@H](O)c1ccc(-c2cccnc2)cc1` (racemic) [Example 88, rac-erythro-2-Amino-1-(4-pyridin-3-yl-phenyl)-2-(4-trifluoromethyl-phenyl)-ethanol], the IC50 falls from 0.88 µM to 0.255 µM (3.5-fold). The second is the more potent here.

Going from `CC(=O)N1CCC(Oc2ccc([C@@H](O)[C@@H](N)c3ccc(Cl)c(Cl)c3)cc2)CC1` (racemic) [Example 46, rac-erythro-[1-(4-[4-[2-Amino-2-(3,4-dichloro-phenyl)-1-hydroxy-ethyl]-phenoxy]-piperidin-1-yl)-ethanone] to `N[C@@H](c1ccc(Cl)c(Cl)c1)[C@H](O)c1cc(F)c(OC2CCOCC2)c(F)c1` (racemic) [Example 20, rac-erythro-[2-Amino-2-(3,4-dichloro-phenyl)-1-[3,5-difluoro-4-(tetrahydro-pyran-4-yloxy)-phenyl]-ethanol hydrochloride], the IC50 falls from 0.262 µM to 0.09 µM (2.9-fold).

First: N[C@@H](c1ccc(Cl)cc1)[C@H](O)c1ccc(OC(CF)CF)cc1 (racemic) [Example 58, rac-erythro-2-Amino-2-(4-chloro-phenyl)-1-[4-(2-fluoro-1-fluoromethyl-ethoxy)-phenyl]-ethanol]
Second: N[C@@H](c1ccc(Cl)cc1)[C@H](O)c1ccc(N2CCOCC2)nc1 (racemic) [Example 80, rac-erythro-2-Amino-2-(4-chloro-phenyl)-1-(6-morpholin-4-yl-pyridin-3-yl)-ethanol]
The IC50 of the first is 2.2-fold lower: 0.478 µM for the first, 1.04 µM for the second. The first is the more potent here.

`Cc1cc([C@@H](O)[C@@H](N)c2ccc(Cl)c(Cl)c2)ccc1-c1cncc(F)c1` (racemic) [Example 14, rac-erythro-[2-Amino-2-(3,4-dichloro-phenyl)-1-[4-(5-fluoro-pyridin-3-yl)-3-methyl-phenyl]-ethanolbis-trifluoroacetate] and `N[C@@H](c1ccc(Cl)cc1F)[C@H](O)c1ccc(-c2cccnc2)cc1` (racemic) [Example 97, rac-erythro-2-Amino-2-(4-chloro-2-fluoro-phenyl)-1-(4-pyridin-3-yl-phenyl)-ethanol] are within 1.5-fold of each other in IC50: 0.275 µM for the first, 0.267 µM for the second.
